In general, Ki refers to a dissociation constant, usually derived from enzyme kinetics or from competition with a known ligand.

Where only a bound is given, the exact number is not on record here.

Sequence of human H4 receptor (Q9H3N8 whole entry): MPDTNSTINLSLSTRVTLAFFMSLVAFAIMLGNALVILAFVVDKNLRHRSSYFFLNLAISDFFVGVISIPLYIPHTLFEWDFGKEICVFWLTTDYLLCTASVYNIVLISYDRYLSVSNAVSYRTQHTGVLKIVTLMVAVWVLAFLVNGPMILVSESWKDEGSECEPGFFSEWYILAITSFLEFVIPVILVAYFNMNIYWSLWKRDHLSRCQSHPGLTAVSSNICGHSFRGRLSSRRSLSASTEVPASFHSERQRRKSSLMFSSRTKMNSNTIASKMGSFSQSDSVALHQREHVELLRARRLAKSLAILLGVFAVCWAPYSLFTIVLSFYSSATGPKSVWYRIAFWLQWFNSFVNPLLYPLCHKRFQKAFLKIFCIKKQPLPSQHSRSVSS

The target of the first test is human H4 receptor (Homo sapiens (Human), UniProt Q9H3N8). Nature of the test: Binding assay on recombinant human histamine H4 receptor ([3H]histamine competition, SK-N-MC cell membranes). The conditions noted are these: membranes harvested with 96 well Brandel system; [3H]histamine 10 nM; average of results; read-out: Brandel Ki. On the procedure:
Binding Assay on Recombinant Human Histamine H4Receptor
Cell pellets from SK-N-MC cells stably or transiently transfected with human H4 receptor (NCBI accession No. AF312230) were used for the binding assays. Cell pellets were homogenized in 50 mM Tris/5 mM EDTA buffer and supernatants from an 800 g spin were collected and recentrifuged at 30,000 g for 30 min. Pellets were rehomogenized in 50 mM Tris/5 mM EDTA buffer. […] Membranes were harvested by rapid filtration using the 96 well Brandel system (Table 1, Brandel) or a cell harvester (Table 1, Cell Harvester) using a Whatman GF/C filter or filter plates treated with 0.5% polyethylenimine (PEI), and washed 4 times with ice-cold 50 mM Tris/5 mM EDTA buffer. Filters were then dried, mixed with scintillant and radioactive counts were determined. […] Where activity is shown as greater than (>) a particular value, the value is the highest concentration tested.
`CC(C)CNc1nccc(N2CC(N)C2)n1` [Example 89, 4-(3-Aminoazetidin-1-yl)-N-(2-methylpropyl)pyrimidin-2-amine]: the Ki was determined as 26.2 nM.

`CC(C)Nc1nccc(N2CC(N)C2)n1` [Example 90, 4-(3-Aminoazetidin-1-yl)-N-(1-methylethyl)pyrimidin-2-amine]: the Ki is 68.9 nM. Same read-out and setting: as for `CN[C@@H]1CCN(c2cnnc(N[C@H]3C[C@H]4C[C@@H]([C@@H]3C)C4(C)C)c2)C1` [Example 97, 5-[(3R)-3-(Methylamino)pyrrolidin-1-yl]-N-[(1S,2S,3S,5R)-2,6,6-trimethylbicyclo[3.1.1]hept-3-yl]pyridazin-3-amine], the figure is 5.9 nM. Still for that read-out and setting: as for `CN[C@@H]1CCN(c2cnnc(NC3CCCCC3)c2)C1` [Example 98, N-Cyclohexyl-5-[(3R)-3-(methylamino)pyrrolidin-1-yl]pyridazin-3-amine], the figure is 4.8 nM.

Consider `CN[C@@H]1CCN(c2cnnc(NCC3CC3)c2)C1` [Example 99, N-(Cyclopropylmethyl)-5-[(3R)-3-(methylamino)pyrrolidin-1-yl]pyridazin-3-amine], for which the Ki was 23.9 nM. The same measure, in the same setting: as for `CCCCNc1cc(N2CC[C@@H](NC)C2)cnn1` [Example 100, N-Butyl-5-[(3R)-3-(methylamino)pyrrolidin-1-yl]pyridazin-3-amine], the figure is 31 nM; as for `CC(C)CNc1cc(N2CCN(C)CC2)cnn1` [Example 101, 5-(4-Methylpiperazin-1-yl)-N-(2-methylpropyl)pyridazin-3-amine], more than 10000 nM.

The test is the same for the next values; noted with them: membranes harvested with cell harvester; [3H]histamine 10 nM; average of results; read-out: Cell Harvester Ki.
As for `NC1CN(c2ccnc(NC3CC4CCC3C4)n2)C1` (centres unmarked) [Example 87, 4-(3-Aminoazetidin-1-yl)-N-bicyclo[2.2.1]hept-2-ylpyrimidin-2-amine], the Ki was 33.7 nM. On the same count and under the same terms, next, `CC(C)(C)CNc1nccc(N2CC(N)C2)n1` [Example 88, 4-(3-Aminoazetidin-1-yl)-N-(2,2-dimethylpropyl)pyrimidin-2-amine]: 42.7 nM; `CC(C)CNc1nccc(N2CC(N)C2)n1` [Example 89, 4-(3-Aminoazetidin-1-yl)-N-(2-methylpropyl)pyrimidin-2-amine]: 69.3 nM; `CC(C)Nc1nccc(N2CC(N)C2)n1` [Example 90, 4-(3-Aminoazetidin-1-yl)-N-(1-methylethyl)pyrimidin-2-amine]: 106 nM. Same read-out and setting: as for `NC1CN(c2ccnc(NC3CC3)n2)C1` [Example 91, 4-(3-Aminoazetidin-1-yl)-N-cyclopropylpyrimidin-2-amine], the figure is 182 nM.

`NC1CN(c2ccnc(NCc3ccc(F)cc3)n2)C1` [Example 92, 4-(3-Aminoazetidin-1-yl)-N-(4-fluorobenzyl)pyrimidin-2-amine]: the Ki is 615 nM. Turning to `NC1CN(c2ccnc(N[C@@H]3CCOC3)n2)C1` [Example 93, 4-(3-Aminoazetidin-1-yl)-N-[(3R)-tetrahydrofuran-3-yl]pyrimidin-2-amine], the inhibition constant Ki turned out to be 702 nM. Same read-out and setting: next, `NC1CN(c2ccnc(NC[C@H]3CCCO3)n2)C1` [Example 94, 4-(3-Aminoazetidin-1-yl)-N-[(2R)-tetrahydrofuran-2-ylmethyl]pyrimidin-2-amine]: 868 nM; `CN[C@@H]1CCN(c2cnnc(N[C@H]3C[C@H]4C[C@@H]([C@@H]3C)C4(C)C)c2)C1` [Example 97, 5-[(3R)-3-(Methylamino)pyrrolidin-1-yl]-N-[(1S,2S,3S,5R)-2,6,6-trimethylbicyclo[3.1.1]hept-3-yl]pyridazin-3-amine]: 5.9 nM. In the case of `CN[C@@H]1CCN(c2cnnc(NC3CCCCC3)c2)C1` [Example 98, N-Cyclohexyl-5-[(3R)-3-(methylamino)pyrrolidin-1-yl]pyridazin-3-amine], the Ki is 4.8 nM. Still for that read-out and setting: next, `CN[C@@H]1CCN(c2cnnc(NCC3CC3)c2)C1` [Example 99, N-(Cyclopropylmethyl)-5-[(3R)-3-(methylamino)pyrrolidin-1-yl]pyridazin-3-amine]: 23.9 nM.

Consider `CCCCNc1cc(N2CC[C@@H](NC)C2)cnn1` [Example 100, N-Butyl-5-[(3R)-3-(methylamino)pyrrolidin-1-yl]pyridazin-3-amine], for which the Ki was 31 nM. For `CC(C)CNc1cc(N2CCN(C)CC2)cnn1` [Example 101, 5-(4-Methylpiperazin-1-yl)-N-(2-methylpropyl)pyridazin-3-amine], the Ki is more than 10000 nM. On the same count and under the same terms, next, `CNC1CN(c2ccnc(NCC3CCCCC3)n2)C1` [Example 102, N-(Cyclohexylmethyl)-4-[3-(methylamino)azetidin-1-yl]pyrimidin-2-amine]: 45.9 nM; `C[C@@H](Nc1nccc(N2CC[C@@H](N)C2)n1)C1CCCCC1` [Example 103, 4-[(3R)-3-Aminopyrrolidin-1-yl]-N-[(1R)-1-cyclohexylethyl]pyrimidin-2-amine]: 168 nM; `CC1(C)[C@H]2CC[C@H](CNc3nccc(N4C[C@H]5CCN[C@H]5C4)n3)[C@@H]1C2` [Example 104, N-{[(1S,2S,5S)-6,6-Dimethylbicyclo[3.1.1]hept-2-yl]methyl}-4-[(3aR,6aR)-hexahydropyrrolo[3,4-b]pyrrol-5(1H)-yl]pyrimidin-2amine]: 1050 nM. For the compound `CNC1CN(c2ccnc(NCC3CCC4CC3C4(C)C)n2)C1` (centres unmarked) [Example 105, N-[(6,6-Dimethylbicyclo[3.1.1]hept-2-yl)methyl]-4-[3-(methylamino)azetidin-1-yl]pyrimidin-2-amine], the Ki is 165 nM. Same read-out and setting: as for `CC1(C)C2CCC(CNc3nccc(N4CC[C@@H](N)C4)n3)C1C2` (stereo partly drawn) [Example 106, 4-[(3R)-3-Aminopyrrolidin-1-yl]-N-[(6,6-dimethylbicyclo[3.1.1]hept-2-yl)methyl]pyrimidin-2-amine], the figure is 194 nM.

For the compound `c1cc(N2C[C@H]3CCN[C@H]3C2)nc(NCC2CCCCC2)n1` [Example 107, N-(Cyclohexylmethyl)-4-[(3aR,6aR)-hexahydropyrrolo[3,4-b]pyrrol-5(1H)-yl]pyrimidin-2-amine], the Ki was determined as 69.9 nM. On to `CNC1CN(c2ccnc(NC3CCOCC3)n2)C1` [Example 108, 4-[3-(Methylamino)azetidin-1-yl]-N-(tetrahydro-2H-pyran-4-yl)pyrimidin-2-amine], for which the Ki was found to be 141 nM. Take `N[C@H]1CCN(c2ccnc(NCC3CC3)n2)C1` [Example 109, 4-[(3S)-3-Aminopyrrolidin-1-yl]-N-(cyclopropylmethyl)pyrimidin-1-amine]: the Ki came to 64 nM. Same read-out and setting: next, `CC(C)(O)CNc1nccc(N2CC[C@H](N)C2)n1` [Example 110, 1-({4-[(3S)-3-Aminopyrrolidin-1-yl]pyrimidin-2-yl}amino)-2-methylpropan-2-ol]: 837 nM; `c1cc(N2CCNCC2)nc(NC2CC2)n1` [Example 112, N-Cyclopropyl-4-piperazin-1-ylpyrimidin-2-amine]: 236 nM. Same read-out and setting: next, `CNC1CN(c2ccnc(N[C@H](C)C3CCCCC3)n2)C1` [Example 113, N-[(1R)-1-Cyclohexylethyl]-4-[3-(methylamino)azetidin-1-yl]pyrimidin-2-amine]: 139 nM. On the same count and under the same terms, as for `CN[C@@H]1CCN(c2ccnc(NCC(C)(C)O)n2)C1` [Example 114, 2-Methyl-1-({4-[(3R)-3-(methylamino)pyrrolidin-1-yl]pyrimidin-2-yl}amino)propan-2-ol], the figure is 45.4 nM; as for `C[C@@H](Nc1nccc(N2C[C@H]3CCN[C@H]3C2)n1)C1CCCCC1` [Example 115, N-[(1R)-1-Cyclohexylethyl]-4-[(3aR,6aR)-hexahydropyrrolo[3,4-b]pyrrol-5(1H)-yl]pyrimidin-2-amine], 932 nM; as for `C[C@@H]1[C@@H](Nc2nccc(N3CC[C@@H](N)C3)n2)C[C@H]2C[C@@H]1C2(C)C` [Example 116, 4-[(3R)-3-Aminopyrrolidin-1-yl]-N-[(1S,2S,3S,5R)-2,6,6-trimethylbicyclo[3.1.1]hept-3-yl]pyrimidin-2-amine], 7.53 nM. Take `N[C@@H]1CCN(c2ccnc(NCCc3ccccc3)n2)C1` [Example 117, 4-[(3R)-3-Aminopyrrolidin-1-yl]-N-(2-phenylethyl)pyrimidin-2-amine]: the Ki worked out at 247 nM.

As to `N[C@H]1CCN(c2ccnc(NCc3ccccn3)n2)C1` [Example 118, 4-[(3S)-3-Aminopyrrolidin-1-yl]-N-(pyridin-2-ylmethyl)pyrimidin-2-amine], the Ki was more than 10000 nM. Same read-out and setting: next, `CN1CCN(c2ccnc(NCC3CCCC3)n2)CC1` [Example 119, N-(Cyclopentylmethyl)-4-(4-methylpiperazin-1-yl)pyrimidin-2-amine]: 22.9 nM. Still for that read-out and setting: as for `CN1CCN(c2ccnc(NCC(C)(C)O)n2)CC1` [Example 120], the figure is 303 nM; as for `CN[C@@H]1CCN(c2ccnc(NCC3CCCC3)n2)C1` [Example 121, N-(Cyclopentylmethyl)-4-[(3R)-3-(methylamino)pyrrolidin-1-yl]pyrimidin-2-amine], 1.57 nM; as for `CNC1CN(c2ccnc(NCC(C)(C)O)n2)C1` [Example 122], 64.7 nM. Same read-out and setting: next, `N[C@@H]1CCN(c2ccnc(NCC3CCCC3)n2)C1` [Example 123, 4-[(3R)-3-Aminopyrrolidin-1-yl]-N-(cyclopentylmethyl)pyrimidin-2-amine]: 2.04 nM; `CSCCNc1nccc(N2CCNCC2)n1` [Example 124, N-[2-(Methylsulfanyl)ethyl]-4-piperazin-1-ylpyrimidin-2-amine]: 155 nM. Regarding `CC1(C)[C@@H]2CC[C@@]1(C)[C@@H](Nc1nccc(N3C[C@H]4CCN[C@H]4C3)n1)C2` [Example 125, 4-[(3aR,6aR)-Hexahydropyrrolo[3,4-b]pyrrol-5(1H)-yl]-N-[(1R,2S,4R)-1,7,7-trimethylbicyclo[2.2.1]hept-2-yl]pyrimidin-2-amine], the Ki amounted to 2.1 nM.

`CNC1CN(c2ccnc(N[C@H]3C[C@H]4CC[C@]3(C)C4(C)C)n2)C1` [Example 126, 4-[3-(Methylamino)azetidin-1-yl]-N-[(1R,2S,4R)-1,7,7-trimethylbicyclo[2.2.1]hept-2-yl]pyrimidin-2-amine]: the Ki turned out to be 19.8 nM. On the same count and under the same terms, as for `CC1(C)[C@@H]2CC[C@@]1(C)[C@@H](Nc1nccc(N3CC[C@@H](N)C3)n1)C2` [Example 127, 4-[(3R)-3-Aminopyrrolidin-1-yl]-N-[(1R,2S,4R)-1,7,7-trimethylbicyclo[2.2.1]hept-2-yl]pyrimidin-2-amine], the figure is 1.66 nM; as for `COCCNc1nccc(N2CC[C@H](N)C2)n1` [Example 128, 4-[(3S)-3-Aminopyrrolidin-1-yl]-N-(2-methoxyethyl)pyrimidin-2-amine], 844 nM. In the case of `N[C@H]1CCN(c2ccnc(NC3CCCCC3)n2)C1` [Example 129, 4-[(3S)-3-Aminopyrrolidin-1-yl]-N-cyclohexylpyrimidin-2-amine], the Ki worked out at 141 nM.

The record behind these values is patent US9732087B2, “Diamino-pyridine, pyrimidine, and pyridazine modulators of the histamine H4 receptor” (JANSSEN PHARMACEUTICA NV, priority 2008, dated 2017).
